Source: patent publication US7785846B2, “Method for the production of methionine” (Evonik Degussa GmbH, priority 2003, dated 2010)
In brackets after ≈: the same amount, converted by molar mass.

Assays:
[1] = under these conditions (20° C. and 70° C.), compared with water
[2] = physchem; details: water

CSCC[C@H](N)C(=O)O [methionine]
solubility in the fermentation broth [1]: comparable order of magnitude
solubility ([2]; 20 °C): ~30 mg/mL (≈ 201 mM)
solubility ([2]; 70 °C): > 90 mg/mL
